Experimental data from paper PMC7938888, “Antidepressant drugs act by directly binding to TRKB neurotrophin receptors” (Cell, 2021).

How the values were obtained:
GFP-TRKB [1] = assay: dSTORM/TIRF of GFP-TRKB clusters on MG87.TRKB cells; type: cell-based, mouse; settings: BDNF 10 ng/ml, FLX 10 μM, CHOL 20 μM, KET 10 μM; 15 min
Procedure: (§1) For direct stochastic optical reconstruction microscopy (dSTORM) MG87.TRKB cells were grown on cell view 35mm dishes with glass bottom (Greiner) coated with poly-L-lysine (Sigma). […] Briefly, cells were fixed 24 hours post transfection with 4% PFA for 20 minutes, washed three times for 5 min with 1x PBS and incubated in blocking buffer (1% BSA, 0.1% gelatin, 5% goat serum, 0.1% Triton X-100 and 0.05% Tween-20 in PBS; all from Sigma) for 1 hour. The primary antibody against GFP (Abcam, #ab290) was diluted 1:100 and incubated overnight at +4°C, while the secondary antibody Alexa Fluor-conjugated goat-anti-rabbit 647 (Invitrogen) was diluted 1:500 and incubated at room temperature for 1 hour. The dishes were stored in +4°C in 1x PBS no longer than 48 hours before imaging.
(§2) During imaging, cells were maintained in blinking buffer (10% glucose, 0.07% cysteamine, 0.75 mg/ml glucose oxidase and 0.04 mg/ml catalase in 0.1 M Tris buffer, pH 7.8-8; all reagents from Sigma-Aldrich), which was freshly prepared and changed every hour. Imaging was performed in TIRF mode (TIRF angle 89.3 calibrated with ring-TIRF at least twice per sample) to specifically image the fluorophores at the plasma membrane. A GE DeltaVision OMX SR system (GE Healthcare) equipped with an Apo N 60x/1.49 oil objective and a sCMOS camera was used to acquire the images. The 640 nm diode laser was used at 100% of power to excite the Alexa 647 fluorophores while the 405 nm laser was adjusted until approximately 50% of power in order to maintain the blinking throughout the imaging session. For each cell, 35000 frames were acquired, and the localization map of single fluorophores was reconstructed with SoftWoRx 7.0 software (GE Healthcare). For the localization map, the first 1000 frames approximately were discarded and the reconstruction parameters were maintained identical for all the samples.
(§3) Reconstruction parameters: For the localization of all the blinking events in the dataset, the point spread function size factor was set at 1.550 with a local maximum factor of 0.05. Drift correction was adjusted dividing the frames into 20 groups. Tracking of the fluorophores was performed with a maximum localization precision of 100 nm without fiducial markers. The final localization map of the fluorophores identified was built with a reconstruction pixel size of 10 nm and localization precision set at 5 and 100 nm respectively for the minimum and the maximum, and a fluorophore persistence threshold set at 3 frames.
(§4) The analysis of the reconstructed images was performed in Fiji. Depending on the size of picture, 5 or 10 representative regions of interest (ROIs) of 2x1 μm were blindly chosen per cell and used for particle analysis of the TRKB-positive clusters. […]

GFP-TRKB.Y433F [2] = assay: dSTORM/TIRF of GFP-TRKB.Y433F clusters on MG87.TRKB cells; type: cell-based, mouse; settings: BDNF 10 ng/ml, FLX 10 μM, CHOL 20 μM, KET 10 μM; 15 min
Procedure: as §1, §2, §3, §4

GFP-TRKB.Y433F [3] = assay: FRAP of GFP-TRKB.Y433F in dendritic spines of hippocampal neurons; type: cell-based, rat; settings: BDNF 20 ng/mL, FLX 1 μM, KET 10 μM; 15 min
Procedure: For the fluorescence recovery after photobleaching (FRAP) experiments, E18 rat embryo hippocampal cells were plated onto glass coverslips coated with poly-L-lysine (Sigma-Aldrich) in 4-well cell culture plates at a density of 200.000 cells/well. The cultures were incubated at +37°C in serum-free Neurobasal medium (supplemented with 2% B27, 1% L-glutamine and 1% ampicillin) for approximately 2 weeks (DIV 14-16), renewing half of the growth media weekly. Then, they were transfected with Lipofectamine 2000 (Invitrogen) in order to overexpress GFP-tagged TRKB constructs (TRKB.WT or TRKB.Y433F). The cultures were incubated with the transfection mix (per well: 50ul neurobasal medium, 1ul Lipofectamine 2000, 1ug plasmid DNA) in serum-free media for 1.5 hours, followed by 3x medium washes and returned to the original growth medium after that. The cells were left at +37°C o/n to overexpress the constructs ([Koskinen et al., 2012]). Next day, FRAP was performed with a confocal microscope (Zeiss LSM 710, Carl Zeiss AG) adapted for live cell imaging with a chamber set at +37°C and 5%CO2 (Zeiss Temp Module system, Carl Zeiss AG). Coverslips with the cultured hippocampal neurons were carefully transferred to 35mm Petri dishes with warm HBSS medium without phenol red or serum to avoid sources of background fluorescence. After a 10 minutes adaptation period in the microscope chamber to avoid focus drift caused by temperature fluctuations of the stage and objective, dendritic shafts or spines (spine head diameter = ∼1um) were localized with a 63x/0.90 NA dipping water objective. Picture format was 512x512 pixels. The nominal speed to capture images was set to 9 (pixel dwell 3.15 μseconds, taking approximately 0.5 s to finish a scan), and the pinhole aperture was set to completely open to obtain a strong fluorescent signal ([Koskinen et al., 2012]; [Zheng et al., 2011]). Once a region of interest (ROI) was selected with a circle that contained the whole spine, it was bleached to establish the FRAP baseline. […]

GFP-TRKB [4] = assay: FRAP of GFP-TRKB in dendritic spines of hippocampal neurons; type: cell-based, rat; settings: BDNF 20 ng/mL, FLX 1 μM, KET 10 μM; 15 min pretreatment

CC(C)CCC[C@@H](C)[C@H]1CC[C@H]2[C@@H]3CC=C4C[C@@H](O)CC[C@]4(C)[C@H]3CC[C@]12C [CHOL, cholesterol]
size of clusters formed by wild-type GFP-TRKB at the plasma membrane (GFP-TRKB [1]): increased the size of clusters | size of clusters of GFP-TRKB.Y433F at the plasma membrane (GFP-TRKB.Y433F [2]): not clusters of GFP-TRKB.Y433F mutants

CNCCC(Oc1ccc(C(F)(F)F)cc1)c1ccccc1 (centres unmarked) [FLX, fluoxetine]
fluorescence of GFP-TRKB.Y433F in dendritic spines after bleaching (GFP-TRKB.Y433F [3]): Neither BDNF, FLX, nor KET increased the fluorescence | size of clusters formed by wild-type GFP-TRKB at the plasma membrane (GFP-TRKB [1]): increased the size of clusters | recovery of GFP-TRKB fluorescence in dendritic spines after bleaching (GFP-TRKB [4]): promoted recovery of GFP-TRKB fluorescence in dendritic spines | size of clusters of GFP-TRKB.Y433F at the plasma membrane (GFP-TRKB.Y433F [2]): not clusters of GFP-TRKB.Y433F mutants

CNC1(c2ccccc2Cl)CCCCC1=O (centres unmarked) [KET, ketamine]
fluorescence of GFP-TRKB.Y433F in dendritic spines after bleaching (GFP-TRKB.Y433F [3]): Neither BDNF, FLX, nor KET increased the fluorescence | size of clusters formed by wild-type GFP-TRKB at the plasma membrane (GFP-TRKB [1]): increased the size of clusters | recovery of GFP-TRKB fluorescence in dendritic spines after bleaching (GFP-TRKB [4]): promoted recovery of GFP-TRKB fluorescence in dendritic spines | size of clusters of GFP-TRKB.Y433F at the plasma membrane (GFP-TRKB.Y433F [2]): not clusters of GFP-TRKB.Y433F mutants

B1: BDNF: brain-derived neurotrophic factor, TRKB ligand (protein, UniProt P23560 19-247, looked up)
Neurotrophic factor BDNF …: APMKEANIRGQGGLAYPGVRTHGTLESVNGPKAGSRGLTSLADTFEHVIEELLDEDQKVRPNEENNKDADLYTSRVMLSSQVPLEPPLLFLLEEYKNYLDAANMSMRVRRHSDPARRGELSVCDSISEWVTAADKKTAVDMSGGTVTVLEKVPVSKGQLKQYFYETKCNPMGYTKEGCRGIDKRHWNSQCRTTQSYVRALTMDSKKRIGWRFIRIDTSCVCTLTIKRGR
fluorescence of GFP-TRKB.Y433F in dendritic spines after bleaching (GFP-TRKB.Y433F [3]): Neither BDNF, FLX, nor KET increased the fluorescence | size of clusters formed by wild-type GFP-TRKB at the plasma membrane (GFP-TRKB [1]): increased the size of clusters | recovery of GFP-TRKB fluorescence in dendritic spines after bleaching (GFP-TRKB [4]): rapid recovery of GFP-TRKB fluorescence in spines | size of clusters of GFP-TRKB.Y433F at the plasma membrane (GFP-TRKB.Y433F [2]): not clusters of GFP-TRKB.Y433F mutants
